Experimental findings from patent publication EP4745137A1 (Gluetacs Therapeutics (Shanghai) Co., Ltd., priority 2023, dated 2025) are described below.

For one assay, the target named is T1, IKZF2 (Homo sapiens, UniProt Q96SW2+Q9UKS7).
T1 construct: endogenous in cells; host or cells: hPBMCs (Milecell Biotechnologies)
As to the kind of experiment: Western-blot assay of substrate protein degradation in hPBMCs, IKZF2. In kind it is cell-based. To be noted: 24 hours of compound treatment, compounds tested at 50 nM and 500 nM (concentration of the table not stated).

The next assay deals with T2, CK1α (Homo sapiens, UniProt P48729+Q96SW2).
T2 construct: endogenous in cells; host or cells: hPBMCs (Milecell Biotechnologies)
T2 sequence (P48729 whole entry): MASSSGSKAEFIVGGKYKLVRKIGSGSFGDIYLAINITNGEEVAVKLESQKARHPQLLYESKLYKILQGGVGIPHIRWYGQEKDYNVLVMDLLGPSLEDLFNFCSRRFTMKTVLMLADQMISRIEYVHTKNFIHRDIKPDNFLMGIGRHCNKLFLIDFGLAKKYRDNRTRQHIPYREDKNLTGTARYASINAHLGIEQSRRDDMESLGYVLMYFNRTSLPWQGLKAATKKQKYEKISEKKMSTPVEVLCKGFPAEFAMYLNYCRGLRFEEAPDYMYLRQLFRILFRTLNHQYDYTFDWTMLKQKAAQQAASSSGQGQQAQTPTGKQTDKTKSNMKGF
T2 sequence (Q96SW2 whole entry): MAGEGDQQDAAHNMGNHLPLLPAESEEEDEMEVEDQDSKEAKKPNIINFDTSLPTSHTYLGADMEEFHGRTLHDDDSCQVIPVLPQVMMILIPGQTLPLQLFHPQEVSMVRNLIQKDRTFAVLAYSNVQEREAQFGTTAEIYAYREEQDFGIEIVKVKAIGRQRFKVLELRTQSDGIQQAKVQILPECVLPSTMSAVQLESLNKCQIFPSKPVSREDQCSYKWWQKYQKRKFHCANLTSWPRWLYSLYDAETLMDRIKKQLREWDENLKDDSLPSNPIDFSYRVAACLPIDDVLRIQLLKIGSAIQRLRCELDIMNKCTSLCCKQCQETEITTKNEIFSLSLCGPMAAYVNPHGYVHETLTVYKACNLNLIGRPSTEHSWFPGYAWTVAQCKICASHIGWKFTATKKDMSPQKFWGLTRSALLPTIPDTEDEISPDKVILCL
T2 sequence (Q16531 whole entry partner): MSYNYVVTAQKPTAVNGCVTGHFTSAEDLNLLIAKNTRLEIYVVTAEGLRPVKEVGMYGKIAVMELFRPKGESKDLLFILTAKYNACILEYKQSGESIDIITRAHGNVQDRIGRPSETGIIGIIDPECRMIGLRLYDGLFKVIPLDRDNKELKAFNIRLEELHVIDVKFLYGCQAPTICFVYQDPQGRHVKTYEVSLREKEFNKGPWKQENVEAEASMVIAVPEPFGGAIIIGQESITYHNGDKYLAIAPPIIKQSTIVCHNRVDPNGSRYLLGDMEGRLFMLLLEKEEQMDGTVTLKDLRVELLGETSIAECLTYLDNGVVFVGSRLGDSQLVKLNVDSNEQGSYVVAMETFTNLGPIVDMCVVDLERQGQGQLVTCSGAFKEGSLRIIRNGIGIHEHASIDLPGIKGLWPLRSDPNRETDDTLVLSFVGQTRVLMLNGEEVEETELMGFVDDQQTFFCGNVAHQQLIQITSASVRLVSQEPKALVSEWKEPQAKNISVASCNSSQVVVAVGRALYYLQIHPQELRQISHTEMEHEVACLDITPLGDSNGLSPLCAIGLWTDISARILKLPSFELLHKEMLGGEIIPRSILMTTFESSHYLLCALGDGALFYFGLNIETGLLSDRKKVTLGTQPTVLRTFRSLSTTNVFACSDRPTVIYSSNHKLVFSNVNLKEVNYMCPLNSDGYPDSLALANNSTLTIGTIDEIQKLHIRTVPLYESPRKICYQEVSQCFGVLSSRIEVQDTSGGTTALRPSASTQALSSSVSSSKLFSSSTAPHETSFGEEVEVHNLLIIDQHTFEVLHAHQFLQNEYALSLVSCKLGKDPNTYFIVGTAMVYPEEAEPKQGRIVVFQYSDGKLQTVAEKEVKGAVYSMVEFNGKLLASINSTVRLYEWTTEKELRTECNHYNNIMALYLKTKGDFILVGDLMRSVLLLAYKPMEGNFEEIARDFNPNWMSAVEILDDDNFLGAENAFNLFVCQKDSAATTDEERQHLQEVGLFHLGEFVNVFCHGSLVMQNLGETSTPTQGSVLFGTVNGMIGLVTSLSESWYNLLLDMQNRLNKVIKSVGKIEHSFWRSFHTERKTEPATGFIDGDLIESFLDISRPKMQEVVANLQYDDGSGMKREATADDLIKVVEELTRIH
Nature of the assay: Western-blot assay of substrate protein degradation in hPBMCs, CK1α. To be noted: 24 hours of compound treatment, compounds tested at 50 nM and 500 nM (concentration of the table not stated). In kind it is cell-based.

For the next assay, the target named is T3, WEE1 (Homo sapiens, UniProt P30291+Q96SW2).
T3 construct: endogenous in cells; host or cells: hPBMCs (Milecell Biotechnologies)
Nature of the assay: Western-blot assay of substrate protein degradation in hPBMCs, WEE1. In kind it is cell-based. The settings on record: 24 hours of compound treatment, compounds tested at 50 nM and 500 nM (concentration of the table not stated).

For another assay, the target named is T4, IKZF3 (Homo sapiens, UniProt Q96SW2+Q9UKT9).
T4 construct: endogenous in cells; host or cells: hPBMCs (Milecell Biotechnologies)
T4 sequence (Q9UKT9 whole entry): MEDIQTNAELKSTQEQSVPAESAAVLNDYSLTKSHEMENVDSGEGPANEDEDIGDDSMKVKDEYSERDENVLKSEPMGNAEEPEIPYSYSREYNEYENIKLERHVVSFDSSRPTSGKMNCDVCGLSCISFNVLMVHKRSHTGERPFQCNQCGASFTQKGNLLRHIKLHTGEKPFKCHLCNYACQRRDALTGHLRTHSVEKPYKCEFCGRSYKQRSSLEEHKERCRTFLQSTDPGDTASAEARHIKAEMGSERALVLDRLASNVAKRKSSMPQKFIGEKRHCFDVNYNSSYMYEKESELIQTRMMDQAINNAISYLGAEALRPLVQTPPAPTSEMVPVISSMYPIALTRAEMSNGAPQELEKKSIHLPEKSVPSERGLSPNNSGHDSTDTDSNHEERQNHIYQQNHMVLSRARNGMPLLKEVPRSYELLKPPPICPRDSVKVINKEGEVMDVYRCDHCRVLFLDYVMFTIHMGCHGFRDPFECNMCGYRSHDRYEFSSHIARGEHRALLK
T4 sequence (Q96SW2 whole entry): as the sequence (Q96SW2 whole entry) above
T4 sequence (Q16531 whole entry partner): as the sequence (Q16531 whole entry partner) above
As to the kind of experiment: Western-blot assay of substrate protein degradation in hPBMCs, IKZF3. To be noted: 24 hours of compound treatment, compounds tested at 50 nM and 500 nM (concentration of the table not stated). In kind it is cell-based.

Assay [1] concerns the target T5, human Cereblon WT GST-tagged protein (Homo sapiens, UniProt Q96SW2).
T5 construct: purchased CISBIO 64BDCRBNPEH
As to the kind of experiment: CRBN-binding affinity by HTRF (CEREBLON BINDING kit). To be noted: HTRF inhibitory activity, CEREBLON BINDING kit; read-out: HTRF IC50. Here is the method: The CEREBLON BINDING kits (specification: 10,000 tests; product number: Catalog # 64BDCRBNPEH; CISBIO company) was used to determine the CRBN binding ability of the compounds to be tested through a HTRF method (homogeneous time-resolved fluorescence). The specific methods are as follows: • 1. […] Specifically, diluent #9 (1X) solution was used as the diluent, and multiple concentration gradients were set. […] Then, 2.5 µL of human Cereblon WT GST-tagged protein solution was added to each well. Finally, 5 µL of the thoroughly mixed Thalidomide-Re reagent and GST Eu antibody working solution were added to each of the aforementioned wells. […] The blank control wells were sequentially added with 2.5 µL of diluent #9 (1X) solution, 2.5 µL of binding buffer, and 5 µL of thoroughly mixed Thalidomide-Re reagent and GST Eu antibody working solution. • 4.
(In general: TR-FRET usually uses a lanthanide donor and a delayed reading to cut background.)

The target of the next assay is T6, GSPT1 (Homo sapiens, UniProt P15170+Q96SW2).
T6 construct: endogenous in cells; host or cells: hPBMCs (Milecell Biotechnologies)
T6 sequence (P15170 whole entry): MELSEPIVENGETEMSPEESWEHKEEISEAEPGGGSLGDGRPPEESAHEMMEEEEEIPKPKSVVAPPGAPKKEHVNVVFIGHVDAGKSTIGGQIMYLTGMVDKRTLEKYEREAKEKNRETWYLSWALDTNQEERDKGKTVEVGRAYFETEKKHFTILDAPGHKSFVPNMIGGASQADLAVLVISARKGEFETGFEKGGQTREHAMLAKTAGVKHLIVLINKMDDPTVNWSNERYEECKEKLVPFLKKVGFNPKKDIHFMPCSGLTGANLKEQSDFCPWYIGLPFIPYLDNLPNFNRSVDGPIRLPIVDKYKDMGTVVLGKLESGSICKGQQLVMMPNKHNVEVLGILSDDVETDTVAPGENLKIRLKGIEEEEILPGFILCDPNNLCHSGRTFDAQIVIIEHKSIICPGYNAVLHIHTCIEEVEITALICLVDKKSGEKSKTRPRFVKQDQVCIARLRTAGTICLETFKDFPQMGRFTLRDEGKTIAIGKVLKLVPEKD
T6 sequence (Q96SW2 whole entry): as the sequence (Q96SW2 whole entry) above
T6 sequence (Q16531 whole entry partner): as the sequence (Q16531 whole entry partner) above
Nature of the assay: Western-blot assay of substrate protein degradation in hPBMCs, GSPT1. The assay is classed as cell-based. The settings on record: 24 hours of compound treatment, compounds tested at 50 nM and 500 nM (concentration of the table not stated).

A further assay concerns the target T7, IKZF1 (Homo sapiens, UniProt Q13422+Q96SW2).
T7 construct: endogenous in cells; host or cells: hPBMCs (Milecell Biotechnologies)
As to the kind of experiment: Western-blot assay of substrate protein degradation in hPBMCs, IKZF1. To be noted: 24 hours of compound treatment, compounds tested at 50 nM and 500 nM (concentration of the table not stated). In kind it is cell-based.

By IC50 is commonly meant the concentration needed to halve the response being measured.

T7 sequence (Q13422 whole entry): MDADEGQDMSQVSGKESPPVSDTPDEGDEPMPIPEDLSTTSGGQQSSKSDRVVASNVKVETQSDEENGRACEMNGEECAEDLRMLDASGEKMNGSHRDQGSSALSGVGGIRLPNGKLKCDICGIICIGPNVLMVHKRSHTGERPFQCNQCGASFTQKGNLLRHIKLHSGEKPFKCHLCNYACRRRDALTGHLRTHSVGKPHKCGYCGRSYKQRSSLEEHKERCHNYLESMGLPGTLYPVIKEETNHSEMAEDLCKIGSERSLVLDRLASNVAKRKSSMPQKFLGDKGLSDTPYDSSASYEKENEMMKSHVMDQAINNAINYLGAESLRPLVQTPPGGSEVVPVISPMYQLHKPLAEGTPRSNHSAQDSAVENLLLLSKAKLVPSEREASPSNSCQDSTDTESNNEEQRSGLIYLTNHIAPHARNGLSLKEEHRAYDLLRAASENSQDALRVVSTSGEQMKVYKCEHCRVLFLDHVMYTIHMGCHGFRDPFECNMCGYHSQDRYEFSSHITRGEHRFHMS
T7 sequence (Q96SW2 whole entry): as the sequence (Q96SW2 whole entry) above
T7 sequence (Q16531 whole entry partner): as the sequence (Q16531 whole entry partner) above
T1 sequence (Q9UKS7 whole entry): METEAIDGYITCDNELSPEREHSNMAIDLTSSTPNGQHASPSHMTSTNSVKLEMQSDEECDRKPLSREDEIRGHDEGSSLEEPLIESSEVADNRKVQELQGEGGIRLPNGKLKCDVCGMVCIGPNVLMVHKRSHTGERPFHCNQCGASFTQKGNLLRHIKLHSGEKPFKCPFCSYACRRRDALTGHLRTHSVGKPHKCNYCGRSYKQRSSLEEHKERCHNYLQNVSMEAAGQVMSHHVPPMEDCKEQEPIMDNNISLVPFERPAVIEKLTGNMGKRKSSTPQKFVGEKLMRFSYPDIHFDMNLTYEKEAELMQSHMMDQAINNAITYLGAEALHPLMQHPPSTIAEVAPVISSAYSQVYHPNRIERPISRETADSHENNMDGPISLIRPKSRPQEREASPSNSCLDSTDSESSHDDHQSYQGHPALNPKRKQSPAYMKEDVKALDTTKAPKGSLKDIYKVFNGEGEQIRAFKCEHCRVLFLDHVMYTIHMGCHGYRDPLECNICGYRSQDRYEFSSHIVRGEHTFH
T1 sequence (Q96SW2 whole entry): as the sequence (Q96SW2 whole entry) above
T1 sequence (Q16531 whole entry partner): as the sequence (Q16531 whole entry partner) above
T5 sequence (Q96SW2 whole entry): as the sequence (Q96SW2 whole entry) above

Consider `O=C1CCC(N2Cc3cc(CN4CCN(c5ccc(Cl)cc5Cl)CC4)ccc3C2=O)C(=O)N1` (stereo not drawn) [GT-04464, 3-(5-((4-(2,4-dichlorophenyl)piperazin-1-yl)methyl)-1-oxoisoindolin-2-yl)piperidine-2,6-dione], for which the “IKZF2 substrate protein remaining %” value on IKZF2 is recorded as “A (0% ≤ substrate protein remaining % ≤ 80%)”. In addition, the “CK1a substrate protein remaining %” value on CK1α was “B (80%< substrate protein remaining %≤ 100%)”. Moreover, the “Weel substrate protein remaining %” value on WEE1 is “B (80%< substrate protein remaining %≤ 100%)”. In addition, the “IKZF3 substrate protein remaining %” value on IKZF3 is recorded as “B (80%< substrate protein remaining %≤ 100%)”. In addition, the concentration for half-maximal inhibition (IC50) in assay [1] was in the range of 1000 to 1500 nM. Moreover, the “GSPT1 substrate protein remaining %” value at GSPT1 is on record as “A (0% ≤ substrate protein remaining % ≤ 80%)”. Further, at IKZF1, the “IKZF 1 substrate protein remaining %” value is recorded as “B (80%< substrate protein remaining %≤ 100%)”.
Turning to `O=C1CCC(N2Cc3cc(CN4CCN(c5cccnn5)CC4)ccc3C2=O)C(=O)N1` (stereo not drawn) [GT-04473, 3-(1-oxo-5-((4-(pyridazin-3-yl)piperazin-1-yl)methyl)isoindolin-2-yl)piperidine-2,6-dione], on IKZF2, the “IKZF2 substrate protein remaining %” value is recorded as “B (80%< substrate protein remaining %≤ 100%)”. For the same molecule, at CK1α, the “CK1a substrate protein remaining %” value is “B (80%< substrate protein remaining %≤ 100%)”. Further, the “Weel substrate protein remaining %” value on WEE1 is on record as “A (0% ≤ substrate protein remaining % ≤ 80%)”. Further, the “IKZF3 substrate protein remaining %” value at IKZF3 is on record as “B (80%< substrate protein remaining %≤ 100%)”. In addition, the IC50 in assay [1] is 500 to 1000 nM. In addition, the “GSPT1 substrate protein remaining %” value on GSPT1 was “A (0% ≤ substrate protein remaining % ≤ 80%)”. In addition, the “IKZF 1 substrate protein remaining %” value on IKZF1 is recorded as “A (0% ≤ substrate protein remaining % ≤ 80%)”.
For `O=C1CCC(N2Cc3cc(CN4CCN(c5ncc(Cl)cc5Cl)CC4)ccc3C2=O)C(=O)N1` (stereo not drawn) [GT-04479, 3-(5-((4-(3,5-dichloropyridin-2-yl)piperazin-1-yl)methyl)-1-oxoisoindolin-2-yl)piperidine-2,6-dione], at IKZF2, the “IKZF2 substrate protein remaining %” value is recorded as “A (0% ≤ substrate protein remaining % ≤ 80%)”. For the same molecule, the “CK1a substrate protein remaining %” value at CK1α was “B (80%< substrate protein remaining %≤ 100%)”. Also, the “Weel substrate protein remaining %” value at WEE1 is given as “B (80%< substrate protein remaining %≤ 100%)”. Also, the “IKZF3 substrate protein remaining %” value on IKZF3 is listed as “A (0% ≤ substrate protein remaining % ≤ 80%)”. Moreover, in assay [1], the IC50 is 500 to 1000 nM. Further, the “GSPT1 substrate protein remaining %” value on GSPT1 is on record as “A (0% ≤ substrate protein remaining % ≤ 80%)”. Further, the “IKZF 1 substrate protein remaining %” value on IKZF1 is listed as “B (80%< substrate protein remaining %≤ 100%)”.
As for `O=C1CCC(N2Cc3cc(CN4CCN(c5ncc(C(F)(F)F)cc5Cl)CC4)ccc3C2=O)C(=O)N1` (stereo not drawn) [GT-04480, 3-(5-((4-(3-chloro-5-(trifluoromethyl)pyridin-2-yl)piperazin-1-yl)methyl)-1-oxoisoindolin-2-yl)piperidine-2,6-dione], the “IKZF2 substrate protein remaining %” value on IKZF2 was “A (0% ≤ substrate protein remaining % ≤ 80%)”. Besides, the “CK1a substrate protein remaining %” value at CK1α is reported as “A (0% ≤ substrate protein remaining % ≤ 80%)”. Besides, the “Weel substrate protein remaining %” value at WEE1 was “A (0% ≤ substrate protein remaining % ≤ 80%)”. Moreover, the “IKZF3 substrate protein remaining %” value at IKZF3 is on record as “A (0% ≤ substrate protein remaining % ≤ 80%)”. Moreover, the IC50 in assay [1] lay within 1500 to 1900 nM. Further, on GSPT1, the “GSPT1 substrate protein remaining %” value is “A (0% ≤ substrate protein remaining % ≤ 80%)”. Further, the “IKZF 1 substrate protein remaining %” value on IKZF1 is on record as “A (0% ≤ substrate protein remaining % ≤ 80%)”.
For the molecule `O=C1CCC(N2Cc3cc(CN4CCN(c5ccncc5Cl)CC4)ccc3C2=O)C(=O)N1` (stereo not drawn) [GT-04481, 3-(5-((4-(3-chloropyridin-4-yl)piperazin-1-yl)methyl)-1-oxoisoindolin-2-yl)piperidine-2,6-dione], the “IKZF2 substrate protein remaining %” value at IKZF2 was “A (0% ≤ substrate protein remaining % ≤ 80%)”. In addition, the “CK1a substrate protein remaining %” value at CK1α is “A (0% ≤ substrate protein remaining % ≤ 80%)”. The “Weel substrate protein remaining %” value at WEE1 is listed as “A (0% ≤ substrate protein remaining % ≤ 80%)”. Besides, the “IKZF3 substrate protein remaining %” value at IKZF3 is on record as “B (80%< substrate protein remaining %≤ 100%)”. Also, the IC50 in assay [1] was 500 to 1000 nM. Further, the “GSPT1 substrate protein remaining %” value on GSPT1 is listed as “A (0% ≤ substrate protein remaining % ≤ 80%)”. Also, the “IKZF 1 substrate protein remaining %” value at IKZF1 is given as “A (0% ≤ substrate protein remaining % ≤ 80%)”.
As for `O=C1CCC(N2Cc3cc(CN4CCN(c5ccc(Cl)nn5)CC4)ccc3C2=O)C(=O)N1` (stereo not drawn) [GT-04482, 3-(5-((4-(6-chloropyridazin-3-yl)piperazin-1-yl)methyl)-1-oxoisoindolin-2-yl)piperidine-2,6-dione], on IKZF2, the “IKZF2 substrate protein remaining %” value is “A (0% ≤ substrate protein remaining % ≤ 80%)”. Also, the “CK1a substrate protein remaining %” value on CK1α was “A (0% ≤ substrate protein remaining % ≤ 80%)”. At WEE1, the “Weel substrate protein remaining %” value was “A (0% ≤ substrate protein remaining % ≤ 80%)”. In addition, the “IKZF3 substrate protein remaining %” value on IKZF3 is recorded as “B (80%< substrate protein remaining %≤ 100%)”. In addition, in assay [1], the IC50 lay within 500 to 1000 nM. For the same molecule, the “GSPT1 substrate protein remaining %” value on GSPT1 was “A (0% ≤ substrate protein remaining % ≤ 80%)”. For the same molecule, the “IKZF 1 substrate protein remaining %” value on IKZF1 is “B (80%< substrate protein remaining %≤ 100%)”.
For the molecule `O=C1CCC(N2Cc3cc(CN4CCN(c5cnccn5)CC4)ccc3C2=O)C(=O)N1` (stereo not drawn) [GT-04483, 3-(1-oxo-5-((4-(pyrazin-2-yl)piperazin-1-yl)methyl)isoindolin-2-yl)piperidine-2,6-dione], the “IKZF2 substrate protein remaining %” value on IKZF2 was “A (0% ≤ substrate protein remaining % ≤ 80%)”. Also, at CK1α, the “CK1a substrate protein remaining %” value is recorded as “A (0% ≤ substrate protein remaining % ≤ 80%)”. Further, the “Weel substrate protein remaining %” value on WEE1 is on record as “A (0% ≤ substrate protein remaining % ≤ 80%)”. The “IKZF3 substrate protein remaining %” value on IKZF3 is “B (80%< substrate protein remaining %≤ 100%)”. Moreover, the IC50 in assay [1] was 500 to 1000 nM. Further, the “GSPT1 substrate protein remaining %” value on GSPT1 was “A (0% ≤ substrate protein remaining % ≤ 80%)”. Further, the “IKZF 1 substrate protein remaining %” value on IKZF1 is “B (80%< substrate protein remaining %≤ 100%)”.
For the molecule `O=C1CCC(N2Cc3cc(CN4CCN(c5ncccn5)CC4)ccc3C2=O)C(=O)N1` (stereo not drawn) [GT-04484, 3-(1-oxo-5-((4-(pyrimidin-2-yl)piperazin-1-yl)methyl)isoindolin-2-yl)piperidine-2,6-dione], at IKZF2, the “IKZF2 substrate protein remaining %” value is listed as “A (0% ≤ substrate protein remaining % ≤ 80%)”. For the same molecule, the “CK1a substrate protein remaining %” value at CK1α is “A (0% ≤ substrate protein remaining % ≤ 80%)”. Further, at WEE1, the “Weel substrate protein remaining %” value is recorded as “A (0% ≤ substrate protein remaining % ≤ 80%)”. For the same molecule, on IKZF3, the “IKZF3 substrate protein remaining %” value is listed as “B (80%< substrate protein remaining %≤ 100%)”. In addition, in assay [1], the IC50 lay in the range of 500 to 1000 nM. For the same molecule, on GSPT1, the “GSPT1 substrate protein remaining %” value is “A (0% ≤ substrate protein remaining % ≤ 80%)”. The “IKZF 1 substrate protein remaining %” value at IKZF1 was “B (80%< substrate protein remaining %≤ 100%)”.
In the case of `O=C1CCC(N2Cc3cc(CN4CCN(c5ncncn5)CC4)ccc3C2=O)C(=O)N1` (stereo not drawn) [GT-04486, 3-(5-((4-(1,3,5-triazin-2-yl)piperazin-1-yl)methyl)-1-oxoisoindolin-2-yl)piperidine-2,6-dione], at IKZF2, the “IKZF2 substrate protein remaining %” value is reported as “A (0% ≤ substrate protein remaining % ≤ 80%)”. Besides, the “CK1a substrate protein remaining %” value at CK1α is “A (0% ≤ substrate protein remaining % ≤ 80%)”. The “Weel substrate protein remaining %” value at WEE1 is recorded as “A (0% ≤ substrate protein remaining % ≤ 80%)”. Moreover, the “IKZF3 substrate protein remaining %” value on IKZF3 is reported as “B (80%< substrate protein remaining %≤ 100%)”. Also, the IC50 in assay [1] was 500 to 1000 nM. Also, on GSPT1, the “GSPT1 substrate protein remaining %” value is “A (0% ≤ substrate protein remaining % ≤ 80%)”. Moreover, the “IKZF 1 substrate protein remaining %” value on IKZF1 was “A (0% ≤ substrate protein remaining % ≤ 80%)”.
